Data taken from publication PMC5218480 (PLoS ONE, 2017).

Tested on: MV-4-11 cells
Assay: Gene expression microarray analysis (Affymetrix PrimeView) and GSEA
Format: cell-based, human
Set-up: RFU PODN (11730768_x_at) / Fold change /veh PODN (11730768_x_at) / RFU LINC00158 (11744669_a_at) / Fold change /veh LINC00158 (11744669_a_at) / RFU DUSP10 (11751237_a_at) / Fold change /veh DUSP10 (11751237_a_at) / RFU ID3 (11757404_x_at) / Fold change /veh ID3 (11757404_x_at) / RFU PLEKHG5 (11737974_s_at) / Fold change /veh PLEKHG5 (11737974_s_at) / RFU LRRC4B (11730491_at) / Fold change /veh LRRC4B (11730491_at) / RFU GIMAP4 (11747438_a_at) / Fold change /veh GIMAP4 (11747438_a_at) / RFU KRT8 (11758183_x_at) / Fold change /veh KRT8 (11758183_x_at) / RFU CNN1 (11734310_a_at) / Fold change /veh CNN1 (11734310_a_at) / RFU VPS37D (11726825_at) / Fold change /veh VPS37D (11726825_at) / RFU C10orf10 (11716522_x_at) / Fold change /veh C10orf10 (11716522_x_at) / RFU KIR2DL2 /// KIR2DL4 /// KIR2DL5A /// KIR2DL5B /// KIR2DS1 /// KIR2DS2 /// KIR2DS3 /// KIR2DS4 /// KIR3DL3 /// KIR3DL3 /// KIR3DS1 (11738374_at) / Fold change /veh KIR2DL2 /// KIR2DL4 /// KIR2DL5A /// KIR2DL5B /// KIR2DS1 /// KIR2DS2 /// KIR2DS3 /// KIR2DS4 /// KIR3DL3 /// KIR3DL3 /// KIR3DS1 (11738374_at) / RFU C1QL1 (11718748_at) / Fold change /veh C1QL1 (11718748_at) / RFU TMPRSS4 (11747572_a_at) / Fold change /veh TMPRSS4 (11747572_a_at) / RFU HAMP (11756126_x_at) / Fold change /veh HAMP (11756126_x_at) / RFU RNFT2 (11725882_a_at) / Fold change /veh RNFT2 (11725882_a_at) / RFU NR4A2 (11747474_a_at) / Fold change /veh NR4A2 (11747474_a_at) / RFU ABCC12 (11746883_a_at) / Fold change /veh ABCC12 (11746883_a_at) / RFU TMEM136 (11760407_x_at) / Fold change /veh TMEM136 (11760407_x_at) / RFU CLDN22 /// WWC2 (11732394_at) / Fold change /veh CLDN22 /// WWC2 (11732394_at) / RFU HLA-DPB1 (11760878_x_at) / Fold change /veh HLA-DPB1 (11760878_x_at) / RFU SPINT1 (11716480_a_at) / Fold change /veh SPINT1 (11716480_a_at) / RFU GAP43 (11754022_s_at) / Fold change /veh GAP43 (11754022_s_at) / RFU A4GNT (11735810_at) / Fold change /veh A4GNT (11735810_at) / RFU PRB3 (11715151_x_at) / Fold change /veh PRB3 (11715151_x_at) / RFU TUBB4B (11761932_at) / Fold change /veh TUBB4B (11761932_at) / RFU CAPN14 (11732068_a_at) / Fold change /veh CAPN14 (11732068_a_at) / RFU TMCC2 (11721928_a_at) / Fold change /veh TMCC2 (11721928_a_at) / RFU IRGQ (11745062_a_at) / Fold change /veh IRGQ (11745062_a_at) / RFU FAM174B (11720279_a_at) / Fold change /veh FAM174B (11720279_a_at) / RFU TMPRSS4 (11748680_a_at) / Fold change /veh TMPRSS4 (11748680_a_at) / RFU FAM212B (11763350_a_at) / Fold change /veh FAM212B (11763350_a_at) / RFU PLEKHG5 (11743358_a_at) / Fold change /veh PLEKHG5 (11743358_a_at) / RFU ZSCAN30 (11745921_a_at) / Fold change /veh ZSCAN30 (11745921_a_at) / RFU CMKLR1 (11741424_a_at) / Fold change /veh CMKLR1 (11741424_a_at) / RFU LOC101060620 /// MAPK8IP1 (11723275_at) / Fold change /veh LOC101060620 /// MAPK8IP1 (11723275_at) / RFU SPTSSB (11747773_x_at) / Fold change /veh SPTSSB (11747773_x_at) / RFU PRSS12 (11739890_at) / Fold change /veh PRSS12 (11739890_at) / RFU BIN1 (11741810_x_at) / Fold change /veh BIN1 (11741810_x_at) / RFU WNT11 (11732464_a_at) / Fold change /veh WNT11 (11732464_a_at) / RFU C10orf10 (11716521_a_at) / Fold change /veh C10orf10 (11716521_a_at) / RFU C5orf56 (11738089_at) / Fold change /veh C5orf56 (11738089_at) / RFU CYB561 (11721691_x_at) / Fold change /veh CYB561 (11721691_x_at) / RFU ANKRD19P (11752326_a_at) / Fold change /veh ANKRD19P (11752326_a_at) / RFU OR2T12 /// OR2T33 /// OR2T8 (11738714_s_at) / Fold change /veh OR2T12 /// OR2T33 /// OR2T8 (11738714_s_at) / RFU VCAN (11748164_a_at) / Fold change /veh VCAN (11748164_a_at) / RFU JSRP1 (11732532_at) / Fold change /veh JSRP1 (11732532_at) / RFU KRTAP10-11 (11738290_x_at) / Fold change /veh KRTAP10-11 (11738290_x_at) / RFU MYO3A (11730013_a_at) / Fold change /veh MYO3A (11730013_a_at) / RFU EBF3 (11725865_a_at) / Fold change /veh EBF3 (11725865_a_at) / RFU CAMK2N1 (11719241_x_at) / Fold change /veh CAMK2N1 (11719241_x_at) / RFU C5orf56 (11738088_a_at) / Fold change /veh C5orf56 (11738088_a_at) / RFU OLFML3 (11715873_a_at) / Fold change /veh OLFML3 (11715873_a_at) / RFU LOC100653217 /// NTM (11731650_a_at) / Fold change /veh LOC100653217 /// NTM (11731650_a_at) / RFU MAPK11 (11762145_a_at) / Fold change /veh MAPK11 (11762145_a_at) / RFU FIZ1 (11724087_x_at) / Fold change /veh FIZ1 (11724087_x_at) / RFU OASL (11726364_x_at) / Fold change /veh OASL (11726364_x_at) / RFU SOX15 (11748057_x_at) / Fold change /veh SOX15 (11748057_x_at) / RFU CD79A (11719716_a_at) / Fold change /veh CD79A (11719716_a_at) / RFU HIST1H1D (11736915_at) / Fold change /veh HIST1H1D (11736915_at) / RFU CASKIN2 (11723855_a_at) / Fold change /veh CASKIN2 (11723855_a_at) / RFU LOC730098 (11760151_x_at) / Fold change /veh LOC730098 (11760151_x_at) / RFU OR4N2 (11742367_at) / Fold change /veh OR4N2 (11742367_at) / RFU PRRT2 (11749266_a_at) / Fold change /veh PRRT2 (11749266_a_at) / RFU SNX32 (11753110_a_at) / Fold change /veh SNX32 (11753110_a_at) / RFU CDHR5 (11726645_a_at) / Fold change /veh CDHR5 (11726645_a_at) / RFU RCAN1 (11760418_a_at) / Fold change /veh RCAN1 (11760418_a_at) / RFU FAM167A (11723789_a_at) / Fold change /veh FAM167A (11723789_a_at) / RFU FAM26E (11764081_at) / Fold change /veh FAM26E (11764081_at) / RFU ISYNA1 (11749810_s_at) / Fold change /veh ISYNA1 (11749810_s_at) / RFU ACY1 (11761880_at) / Fold change /veh ACY1 (11761880_at) / RFU 11764098_at / Fold change /veh 11764098_at / RFU SAMD14 (11745864_x_at) / Fold change /veh SAMD14 (11745864_x_at) / RFU NPB (11741838_a_at) / Fold change /veh NPB (11741838_a_at) / RFU TMPRSS6 (11731388_a_at) / Fold change /veh TMPRSS6 (11731388_a_at) / RFU KRTAP10-2 (11738614_at) / Fold change /veh KRTAP10-2 (11738614_at) / RFU ARHGAP8 /// PRR5-ARHGAP8 (11727945_x_at) / Fold change /veh ARHGAP8 /// PRR5-ARHGAP8 (11727945_x_at) / RFU KRTAP5-7 /// NADSYN1 (11734609_at) / Fold change /veh KRTAP5-7 /// NADSYN1 (11734609_at) / RFU RASL12 (11751679_a_at) / Fold change /veh RASL12 (11751679_a_at) / RFU CDKN2B (11736163_a_at) / Fold change /veh CDKN2B (11736163_a_at) / RFU PRF1 (11729649_at) / Fold change /veh PRF1 (11729649_at) / RFU, ZNF638 /// ZNF638-IT1 / Fold change vs veh, ZNF638 /// ZNF638-IT1 / RFU, PANK3 / Fold change vs veh, PANK3 / RFU, SH3YL1 / Fold change vs veh, SH3YL1 / RFU, ZEB2 / Fold change vs veh, ZEB2 / RFU, NRIP1 / Fold change vs veh, NRIP1 / RFU, PTTG1IP / Fold change vs veh, PTTG1IP / RFU, CAPN2 / Fold change vs veh, CAPN2 / RFU, MED14 / Fold change vs veh, MED14 / RFU, SNORA58 / Fold change vs veh, SNORA58 / RFU, C1orf63 / Fold change vs veh, C1orf63 / RFU, LRRFIP1 / Fold change vs veh, LRRFIP1 / RFU, NDUFAF7 / Fold change vs veh, NDUFAF7 / RFU, SLC12A2 / Fold change vs veh, SLC12A2 / RFU, IBTK / Fold change vs veh, IBTK / RFU, ESF1 / Fold change vs veh, ESF1 / Fold change vs veh, TMEM50B / RFU, TAOK1 / Fold change vs veh, TAOK1 / RFU, ACBD3 / Fold change vs veh, ACBD3 / RFU, TMA16 / Fold change vs veh, TMA16 / RFU, RWDD3 / Fold change vs veh, RWDD3 / RFU, BCAT1 / Fold change vs veh, BCAT1 / RFU, EDEM3 / Fold change vs veh, EDEM3 / RFU, TMEM33 / Fold change vs veh, TMEM33 / RFU, WDR75 / Fold change vs veh, WDR75 / RFU, AHCTF1 / Fold change vs veh, AHCTF1 / RFU, TFRC / Fold change vs veh, TFRC / RFU, ZDHHC17 / Fold change vs veh, ZDHHC17 / RFU, NOM1 / Fold change vs veh, NOM1 / RFU, ARL8B / Fold change vs veh, ARL8B / RFU, ZBTB11 / Fold change vs veh, ZBTB11 / RFU, TAMM41 / Fold change vs veh, TAMM41 / RFU, KIAA1704 /// LOC100996395 / Fold change vs veh, KIAA1704 /// LOC100996395 / RFU, ING1 / Fold change vs veh, ING1 / RFU, TRMT61B / Fold change vs veh, TRMT61B / RFU, FUBP3 / Fold change vs veh, FUBP3 / RFU, TP53 / Fold change vs veh, TP53 / RFU, TNKS2 / Fold change vs veh, TNKS2 / RFU, ZFP14 / Fold change vs veh, ZFP14 / RFU, ACTR2 / Fold change vs veh, ACTR2 / RFU, PPP3R1 / Fold change vs veh, PPP3R1 / RFU, PIK3R1 / Fold change vs veh, PIK3R1 / RFU, HNRNPA1 / Fold change vs veh, HNRNPA1 / RFU, RNF170 / Fold change vs veh, RNF170 / RFU, ZNF28 / Fold change vs veh, ZNF28 / RFU, RNGTT / Fold change vs veh, RNGTT / RFU, OGT / Fold change vs veh, OGT / RFU, BRD1 / Fold change vs veh, BRD1 / RFU, MARS / Fold change vs veh, MARS / RFU, ZNF655 / Fold change vs veh, ZNF655 / RFU, FAHD1 / Fold change vs veh, FAHD1 / RFU, BDP1 / Fold change vs veh, BDP1 / RFU, LRRCC1 / Fold change vs veh, LRRCC1 / RFU, ARID1A / Fold change vs veh, ARID1A / RFU, ZNF146 / Fold change vs veh, ZNF146 / RFU, ZNF330 / Fold change vs veh, ZNF330 / RFU, GPN3 / Fold change vs veh, GPN3 / RFU, C9orf123 / Fold change vs veh, C9orf123 / RFU, N4BP2L2 / Fold change vs veh, N4BP2L2 / RFU, ARFIP1 / Fold change vs veh, ARFIP1 / RFU, FAM179B / Fold change vs veh, FAM179B / RFU, BCL10 / Fold change vs veh, BCL10 / RFU, UHRF1BP1L / Fold change vs veh, UHRF1BP1L / RFU, BET1 / Fold change vs veh, BET1 / RFU, CNOT2 / Fold change vs veh, CNOT2 / RFU, ZNF268 / Fold change vs veh, ZNF268 / Fold change vs veh, ZNF507 / RFU, DGCR2 / Fold change vs veh, DGCR2 / RFU, WDSUB1 / Fold change vs veh, WDSUB1 / Fold change vs veh, HSP90B1 /// MIR3652 / RFU, ADSS / Fold change vs veh, ADSS / RFU, GK / Fold change vs veh, GK / RFU, ZNF148 / Fold change vs veh, ZNF148 / RFU, TAF9 / Fold change vs veh, TAF9 / RFU, SLC1A5 / Fold change vs veh, SLC1A5 / RFU, SLMO2 / Fold change vs veh, SLMO2 / RFU, ABCC4 / Fold change vs veh, ABCC4 / RFU, LOC101060439 /// RAP1B / Fold change vs veh, LOC101060439 /// RAP1B / RFU, RFX7 / Fold change vs veh, RFX7 / RFU, GTPBP10 / Fold change vs veh, GTPBP10 / RFU, CNEP1R1 / Fold change vs veh, CNEP1R1 / RFU, BIVM-ERCC5 /// ERCC5 / Fold change vs veh, BIVM-ERCC5 /// ERCC5 / RFU, ILF3 / Fold change vs veh, ILF3 / RFU 11762660_at / Fold change /veh 11762660_at / RFU VCAN (11757783_s_at) / Fold change /veh VCAN (11757783_s_at) / RFU DDX43 (11728927_at) / Fold change /veh DDX43 (11728927_at) / RFU KRT8 (11758188_x_at) / Fold change /veh KRT8 (11758188_x_at) / RFU NKD1 (11759106_at) / Fold change /veh NKD1 (11759106_at) / RFU SRD5A1 (11742802_a_at) / Fold change /veh SRD5A1 (11742802_a_at) / RFU TPSAB1 /// TPSB2 (11721975_s_at) / Fold change /veh TPSAB1 /// TPSB2 (11721975_s_at) / RFU GSTM3 (11746129_a_at) / Fold change /veh GSTM3 (11746129_a_at) / RFU IL23R (11737362_x_at) / Fold change /veh IL23R (11737362_x_at) / RFU TMEM51 (11727254_a_at) / Fold change /veh TMEM51 (11727254_a_at) / RFU PIWIL2 (11732686_x_at) / Fold change /veh PIWIL2 (11732686_x_at) / RFU ORM1 (11744905_x_at) / Fold change /veh ORM1 (11744905_x_at) / RFU CCDC152 (11743942_at) / Fold change /veh CCDC152 (11743942_at) / RFU ECM1 (11717891_a_at) / Fold change /veh ECM1 (11717891_a_at) / RFU IL23R (11748794_a_at) / Fold change /veh IL23R (11748794_a_at) / RFU TNFAIP8L3 (11732012_x_at) / Fold change /veh TNFAIP8L3 (11732012_x_at) / RFU MBOAT4 (11741988_at) / Fold change /veh MBOAT4 (11741988_at) / RFU 11764193_at / Fold change /veh 11764193_at / RFU TMEM53 (11763286_at) / Fold change /veh TMEM53 (11763286_at) / RFU MAGEB2 (11727129_at) / Fold change /veh MAGEB2 (11727129_at) / RFU TMEM200A (11744735_a_at) / Fold change /veh TMEM200A (11744735_a_at) / RFU CCDC152 (11751479_a_at) / Fold change /veh CCDC152 (11751479_a_at) / RFU FAM211A (11726209_a_at) / Fold change /veh FAM211A (11726209_a_at) / RFU RGS16 (11746705_a_at) / Fold change /veh RGS16 (11746705_a_at) / RFU VCAN (11755009_s_at) / Fold change /veh VCAN (11755009_s_at) / RFU RHOB (11743442_s_at) / Fold change /veh RHOB (11743442_s_at) / RFU RGS16 (11720943_a_at) / Fold change /veh RGS16 (11720943_a_at) / RFU RGS16 (11720944_at) / Fold change /veh RGS16 (11720944_at) / RFU, VPS4B / Fold change vs veh, VPS4B / RFU, CREB1 / Fold change vs veh, CREB1 / RFU, DNAJC13 / Fold change vs veh, DNAJC13 / RFU, GNAQ / Fold change vs veh, GNAQ / RFU, CDK5R1 / Fold change vs veh, CDK5R1 / RFU, ZRANB3 / Fold change vs veh, ZRANB3 / RFU, CUL4A / Fold change vs veh, CUL4A / RFU, CCNY / Fold change vs veh, CCNY / RFU, UFL1 / Fold change vs veh, UFL1 / RFU, COG3 / Fold change vs veh, COG3 / RFU, DIAPH2 / Fold change vs veh, DIAPH2 / RFU, SKA2 / Fold change vs veh, SKA2 / RFU, AFF3 / Fold change vs veh, AFF3 / RFU, LMF1 / Fold change vs veh, LMF1 / RFU, IPO11 / Fold change vs veh, IPO11 / RFU, DFFB / Fold change vs veh, DFFB / RFU, FOXP1 / Fold change vs veh, FOXP1 / RFU, CARD8 / Fold change vs veh, CARD8 / RFU, STRN3 / Fold change vs veh, STRN3 / RFU, ADK / Fold change vs veh, ADK / RFU, RASSF2 / Fold change vs veh, RASSF2 / RFU, WIPF1 / Fold change vs veh, WIPF1 / RFU, LARP1B / Fold change vs veh, LARP1B / RFU, RASA1 / Fold change vs veh, RASA1 / RFU, RB1 / Fold change vs veh, RB1 / RFU, PPFIA1 / Fold change vs veh, PPFIA1 / RFU, MAT2A / Fold change vs veh, MAT2A / RFU, CCT5 / Fold change vs veh, CCT5 / RFU, WDR92 / Fold change vs veh, WDR92 / RFU, CUX1 / Fold change vs veh, CUX1 / RFU, TTC7A / Fold change vs veh, TTC7A / RFU, TMEM135 / Fold change vs veh, TMEM135 / RFU, DEPTOR / Fold change vs veh, DEPTOR / RFU, CPM / Fold change vs veh, CPM / RFU, DNAJB6 / Fold change vs veh, DNAJB6 / RFU, CACNA2D3 / Fold change vs veh, CACNA2D3 / RFU, DTX4 / Fold change vs veh, DTX4 / RFU, TFCP2 / Fold change vs veh, TFCP2 / RFU, GMCL1 /// GMCL1P1 / Fold change vs veh, GMCL1 /// GMCL1P1 / RFU, AEBP2 / Fold change vs veh, AEBP2 / RFU, SNHG1 /// SNORD22 /// SNORD25 /// SNORD26 /// SNORD27 /// SNORD28 /// SNORD29 /// SNORD31 / Fold change vs veh, SNHG1 /// SNORD22 /// SNORD25 /// SNORD26 /// SNORD27 /// SNORD28 /// SNORD29 /// SNORD31 / Fold change (Aza/veh), C12orf56 (ProbeSet 11735607_a_at) / Fold change (ACY-1035/veh), C12orf56 (ProbeSet 11735607_a_at) / Fold change (Aza/veh), FGFR1OP (ProbeSet 11751329_s_at) / Fold change (ACY-1035/veh), FGFR1OP (ProbeSet 11751329_s_at) / Fold change (Aza/veh), VPS36 (ProbeSet 11739960_a_at) / Fold change (ACY-1035/veh), VPS36 (ProbeSet 11739960_a_at) / RFU SYPL1 (11715823_x_at) / Fold change /veh SYPL1 (11715823_x_at) / RFU IGFBP7 (11715501_s_at) / Fold change /veh IGFBP7 (11715501_s_at) / RFU REEP3 (11722064_at) / Fold change /veh REEP3 (11722064_at) / RFU IGLL1 (11728026_x_at) / Fold change /veh IGLL1 (11728026_x_at): dose or concentration left out as unconfirmed
Settings: ProbeSet 11727545_at; LIST B

## Nc1ncn([C@@H]2O[C@H](CO)[C@@H](O)[C@H]2O)c(=O)n1 [azacitidine]
  RFU, PANK3: 82.98 RFU
